Source: PMC10143822, “Structural Adaptation of the Single-Stranded DNA-Binding Protein C-Terminal to DNA Metabolizing Partners Guides Inhibitor Design” (Pharmaceutics, 2023)
Where a SMILES comes first, the peptide text is derived from it. Primed or numbered codes have the meaning given here. Where no end group is shown, it is not given here. [ ]: non-standard residue; d: D form. 5,6‑carboxyfluorescein = 5,6-carboxyfluorescein; Phe(4-CF3) = N[C@@H](Cc1ccc(C(F)(F)F)cc1)C(=O)O; Phe(3-Cl) = N[C@@H](Cc1cccc(Cl)c1)C(=O)O; Phe(4-Cl) = N[C@@H](Cc1ccc(Cl)cc1)C(=O)O; Phe(4-F) = N[C@@H](Cc1ccc(F)cc1)C(=O)O; NMeF = CN[C@@H](Cc1ccccc1)C(=O)O; β3hI = CC[C@H](C)[C@H](N)CC(=O)O; Tic = O=C(O)[C@@H]1Cc2ccccc2CN1; 2Thi = N[C@@H](Cc1cccs1)C(=O)O; NMeD = CN[C@@H](CC(=O)O)C(=O)O; β3hD = NC(CC(=O)O)CC(=O)O; Pip′ = not defined here

T1: E. coli Exonuclease I (E. coli, UniProt P04995 1-471)
T1 construct: Exonuclease I of E. coli, from plasmid pET14b-E. coli Exonuclease I (Addgene 104552); The His tag was cut off with thrombin only for the purified protein; also called ExoI; Exol; source: E. coli BL21 (DE3) pLysS, purified (Ni-NTA, heparin); also in cell lysate (pull-down)
T1 sequence: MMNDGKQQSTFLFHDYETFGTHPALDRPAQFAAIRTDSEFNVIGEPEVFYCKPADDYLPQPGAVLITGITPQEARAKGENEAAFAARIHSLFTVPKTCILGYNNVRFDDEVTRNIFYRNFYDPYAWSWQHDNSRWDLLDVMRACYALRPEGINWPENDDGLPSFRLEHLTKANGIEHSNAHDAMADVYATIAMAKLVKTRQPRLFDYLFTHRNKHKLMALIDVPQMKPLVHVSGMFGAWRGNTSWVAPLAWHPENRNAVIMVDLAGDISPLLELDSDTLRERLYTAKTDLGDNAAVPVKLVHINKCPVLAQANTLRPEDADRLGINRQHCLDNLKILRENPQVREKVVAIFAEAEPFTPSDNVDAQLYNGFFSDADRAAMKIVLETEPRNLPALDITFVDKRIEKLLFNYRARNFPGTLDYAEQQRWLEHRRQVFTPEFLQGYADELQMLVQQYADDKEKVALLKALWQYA

T2: Escherichia coli RecO (Escherichia coli, UniProt P0A7H3 1-242)
T2 construct: RecO of Escherichia coli, synthetic gene in pET28a+ with a TEV site at the 5' end; The His tag was cut off with TEV protease only for the purified protein; source: E. coli Rosetta, purified (Ni-NTA, heparin); also in cell lysate (pull-down); not shown: His tag, N-terminal, cleaved
T2 sequence: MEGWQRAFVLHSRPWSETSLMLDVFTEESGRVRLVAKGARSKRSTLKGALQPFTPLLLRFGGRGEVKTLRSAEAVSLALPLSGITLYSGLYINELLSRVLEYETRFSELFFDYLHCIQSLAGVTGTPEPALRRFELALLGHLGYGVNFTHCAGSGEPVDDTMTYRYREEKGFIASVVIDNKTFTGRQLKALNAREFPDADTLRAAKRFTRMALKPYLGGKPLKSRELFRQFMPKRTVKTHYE


Columns and labels:
[1] = molecular target: T3, RecO (Escherichia coli, UniProt P0A7H3); test: biochemical; assay type: binding; details: 0.5 μM RecO, 50 nM F-wtSSB tracer, 0–500 μM unlabeled peptide, 30 min room temperature; 20 mM Tris-HCl pH 8.0, 200 mM NaCl, 10% glycerol, 0.01% Triton-X 100; 25 °C; triplicate; read-out: IC50 on RecO, competitive fluorescence anisotropy
T3 construct: His-tag (TEV site) (N, cleaved yes); made in house; host or cells: E. coli Rosetta cells
Experimental: (§1) Triplicate measurements were performed using a Clariostar Plus Microplate Reader in 384-well plates for all fluorescence anisotropy (FA) experiments. The settings were 25 °C, excitation at 485 nm, emission at 510 nm, settling time of 0.2 s, and 200 flashes per well.
(§2) Competition fluorescence anisotropy experiments were carried out as follows: protein (0.5 μM either ExoI or RecO) was incubated with 50 nM F-wtSSB peptide and 0–500 μM unlabeled wtSSB (or a variant) peptide for 30 min at room temperature. For direct fluorescence anisotropy measurements, 16 µM ExoI and 7.5 µM RecO were used in the first well. After serial dilution, either 50 nM of F-mSSB or F-sSSB was added to the wells and then incubated for 30 min. Buffers used included 20 mM Tris-HCl (pH 8.0), 100 mM NaCl, 1 mM MgCl2, 1 mM 2-mercaptoethanol, 10% (v/v) glycerol, for ExoI and 20 mM Tris-HCl (pH 8.0), 200 mM NaCl, 1 mM 2-mercaptoethanol, 10% (v/v) glycerol, and 0.01% Triton-X 100 for RecO [37].
(§3) Fluorescence anisotropy values were normalized and are shown as bound fractions (BF, %). BF=r−rmin/λ(rmax−r)+r−rmin, I=2∗PG+S, r=S−PG/I, where r: anisotropy, I: total intensity, P: perpendicular intensity, S: parallel intensity, G: an instrument factor set to 1, BF: ligand fraction bound, and λ=λbound/λunbound=1 .
(§4) Competitive fluorescence anisotropy was analyzed in Origin Pro 9.5, and IC50 values were determined using the Logistic Nonlinear fit function and are shown as plots for each mutated position for each protein in Figures S4 and S6. EC50 values from direct fluorescence anisotropy titrations were plotted in Origin 9.5. Values were determined using the Logistics Nonlinear fit function.

[2] = molecular target: T4, ExoI (Escherichia coli, UniProt P04995); test: biochemical; assay type: binding, E. coli
T4 construct: His-tag (cleaved yes); host or cells: E. coli BL21 (DE3) pLysS
Experimental: as §1, §2, §3, §4

[3] = molecular target: T1, E. coli Exonuclease I; test: fluorescence polarisation; direct fluorescence anisotropy: ExoI serially diluted from 16 µM, 50 nM fluorescein-labelled peptide, 30 min, 25 °C; 20 mM Tris-HCl pH 8.0, 100 mM NaCl, 1 mM MgCl2, 1 mM 2-mercaptoethanol, 10% glycerol; details: both partners purified
[4] = molecular target: T1, E. coli Exonuclease I; test: ITC; peptide in the syringe titrated into ExoI in the cell; 20 mM Tris–HCl pH 8.0, 100 mM NaCl, 1 mM MgCl2, 4% glycerol, 1 mM β-mercaptoethanol; model A + B = C, stoichiometry fixed to 1:1, incompetent fraction fitted; details: both partners purified
[5] = molecular target: T2, Escherichia coli RecO; test: ITC; peptide in the syringe titrated into RecO in the cell; 50 mM HEPES pH 7.5, 50 mM NaCl, 25% glycerol, 1 mM TCEP; model A + B = C, stoichiometry fixed to 1:1, incompetent fraction fitted; details: both partners purified

T4 sequence (P04995 whole entry): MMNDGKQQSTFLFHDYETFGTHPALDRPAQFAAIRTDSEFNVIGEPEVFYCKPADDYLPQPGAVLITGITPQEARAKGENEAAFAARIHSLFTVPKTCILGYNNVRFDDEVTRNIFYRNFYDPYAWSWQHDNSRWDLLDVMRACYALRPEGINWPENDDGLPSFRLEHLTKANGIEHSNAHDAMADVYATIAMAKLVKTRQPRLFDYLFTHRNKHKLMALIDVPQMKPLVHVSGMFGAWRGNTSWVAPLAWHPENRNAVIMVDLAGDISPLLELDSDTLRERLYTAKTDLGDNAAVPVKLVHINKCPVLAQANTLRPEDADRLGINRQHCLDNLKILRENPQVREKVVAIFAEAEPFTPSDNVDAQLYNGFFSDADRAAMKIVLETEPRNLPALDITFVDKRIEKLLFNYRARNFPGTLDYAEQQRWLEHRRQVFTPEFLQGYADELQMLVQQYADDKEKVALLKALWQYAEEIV

Molecule	IC50 [1] [µM]	IC50 [2] [µM]	also measured
CC[C@H](C)[C@H](NC(=O)[C@H](CC(=O)O)NC(=O)[C@@H](CC(=O)O)NC(=O)[C@H](CC(=O)O)NC(=O)[C@H](Cc1ccccc1)NC(=O)[C@H](CC(=O)O)NC(C)=O)C(=O)N1CCC[C@H]1C(=O)N[C@@H](Cc1ccccc1)C(=O)O [D-Asp4] (Ac-DFD[dD]DIPF-OH)	5.92 ± 0.91	3.08 ± 0.07	–
Ac-DFDDNIPF [Asn5]	16 ± 0.51	7.92 ± 0.62	–
CC[C@H](C)[C@H](NC(=O)[C@H](CC(=O)O)NC(=O)[C@H](CC(=O)O)NC(=O)[C@H](CC(=O)O)NC(=O)[C@H](Cc1ccccc1)NC(=O)[C@H](CC(=O)O)N(C)C(C)=O)C(=O)N1CCC[C@H]1C(=O)N[C@@H](Cc1ccccc1)C(=O)O [NM-Asp1] (Ac-[NMeD]FDDDIPF-OH)	5.1 ± 0.64	2.17 ± 0.15	–
Ac-DFDNDIPF [Asn4]	15.7 ± 3.54	6.02 ± 0.3	–
CC[C@H](C)[C@H](NC(=O)[C@H](CC(=O)O)NC(=O)[C@H](CC(=O)O)NC(=O)[C@H](CC(=O)O)NC(=O)[C@H](Cc1ccccc1)NC(=O)[C@@H](CC(=O)O)NC(C)=O)C(=O)N1CCC[C@H]1C(=O)N[C@@H](Cc1ccccc1)C(=O)O [D-Asp1] (Ac-[dD]FDDDIPF-OH)	6.56 ± 1.4	5.55 ± 0.19	–
CC[C@H](C)[C@H](NC(=O)[C@H](CC(=O)O)NC(=O)[C@H](CC(=O)O)NC(=O)[C@H](CC(=O)O)NC(=O)[C@H](Cc1ccccc1)NC(=O)[C@H](CC(=O)O)NC(C)=O)C(=O)N1CCC[C@H]1C(=O)N[C@@H](Cc1cccs1)C(=O)O [Thi8] (Ac-DFDDDIP[2Thi]-OH)	8.59 ± 7.26	7.72 ± 0.51	–
CC[C@H](C)[C@H](NC(=O)[C@H](CC(=O)O)NC(=O)[C@H](CC(=O)O)NC(=O)C[C@H](CC(=O)O)NC(=O)[C@H](Cc1ccccc1)NC(=O)[C@H](CC(=O)O)NC(C)=O)C(=O)N1CCC[C@H]1C(=O)N[C@@H](Cc1ccccc1)C(=O)O [β3-Asp3] (Ac-DF[β3hD]DDIPF-OH)	8.92 ± 0.39	3.65 ± 0.16	–
CC[C@H](C)[C@H](NC(=O)[C@H](CC(=O)O)NC(=O)[C@H](CC(=O)O)NC(=O)[C@H](CC(=O)O)NC(=O)[C@H](Cc1ccccc1)NC(=O)[C@H](CC(=O)O)NC(C)=O)C(=O)N1CCC[C@H]1C(=O)N1Cc2ccccc2C[C@H]1C(=O)O [Tic8] (Ac-DFDDDIP[Tic]-OH)	141 ± 8.37	96.1 ± 83.8	–
Ac-DFDEDIPF [Glu4]	5.68 ± 0.59	3.58 ± 0.11	–
CC[C@H](C)[C@@H](CC(=O)N1CCC[C@H]1C(=O)N[C@@H](Cc1ccccc1)C(=O)O)NC(=O)[C@H](CC(=O)O)NC(=O)[C@H](CC(=O)O)NC(=O)[C@H](CC(=O)O)NC(=O)[C@H](Cc1ccccc1)NC(=O)[C@H](CC(=O)O)NC(C)=O [β3-Ile6] (Ac-DFDDD[β3hI]PF-OH)	19.2 ± 7.47	11.28 ± 0.03	–
CC[C@H](C)[C@H](NC(=O)[C@H](CC(=O)O)NC(=O)[C@H](CC(=O)O)NC(=O)[C@H](CC(=O)O)NC(=O)[C@H](Cc1ccccc1)N(C)C(=O)[C@H](CC(=O)O)NC(C)=O)C(=O)N1CCC[C@H]1C(=O)N[C@@H](Cc1ccccc1)C(=O)O [NM-Phe2] (Ac-D[NMeF]DDDIPF-OH)	3.33 ± 0.35	5.37 ± 0.53	–
CC[C@H](C)[C@H](NC(=O)[C@H](CC(=O)O)NC(=O)[C@H](CC(=O)O)NC(=O)[C@H](CC(=O)O)NC(=O)[C@H](Cc1ccccc1)NC(=O)[C@H](CC(=O)O)NC(C)=O)C(=O)N1CCC[C@H]1C(=O)N[C@@H](Cc1ccc(F)cc1)C(=O)O [4-F-Phe8] (Ac-DFDDDIP[Phe(4-F)]-OH)	4.07 ± 7.98	3.04 ± 0.64	–
CC[C@H](C)[C@H](NC(=O)C[C@H](CC(=O)O)NC(=O)[C@H](CC(=O)O)NC(=O)[C@H](CC(=O)O)NC(=O)[C@H](Cc1ccccc1)NC(=O)[C@H](CC(=O)O)NC(C)=O)C(=O)N1CCC[C@H]1C(=O)N[C@@H](Cc1ccccc1)C(=O)O [β3-Asp5] (Ac-DFDD[β3hD]IPF-OH)	5.91 ± 0.68	13.9 ± 6.11	–
CC[C@H](C)[C@H](NC(=O)[C@H](CC(=O)O)NC(=O)[C@H](CC(=O)O)NC(=O)[C@H](CC(=O)O)NC(=O)[C@H](Cc1ccccc1)NC(=O)C[C@H](CC(=O)O)NC(C)=O)C(=O)N1CCC[C@H]1C(=O)N[C@@H](Cc1ccccc1)C(=O)O [β3-Asp1] (Ac-[β3hD]FDDDIPF-OH)	8.03 ± 0.4	4.47 ± 0.25	–
{5,6‑carboxyfluorescein}-GGDFDDDIP[Phe(4-CF3)] (two glycines between the 5,6-carboxyfluorescein and the peptide; E. coli SSB-Ct, residues 171-178; F at position 8 stands for 4-CF3-Phe; numbers count on: the octapeptide (position 1 = SSB residue 171); One of Compounds 54-62 of the Supplementary Material; also called F-mSSB 4CF3-Phe8; source: synthetic peptide) [F-4CF3-Phe8 (fluorescein-labelled single mutant)]	–	–	EC50 [3]: 0.09 ± 0.01 µM
Ac-D[Phe(4-CF3)]DDDIP[Phe(4-CF3)] (SSB-Ct of E. coli SSB (residues 171-178), printed in three-letter code; F2 and F8 stand for 4-CF3-Phe; numbers count on: the octapeptide (position 1 = SSB residue 171); also called E2.SSB-Ct; source: synthetic peptide) [E2-sSSB-Ct (Asp–4-CF3-Phe–Asp–Asp–Asp–Ile–Pro–4-CF3-Phe)]	–	–	dH [4]: -13.4 kcal/mol; stoichiometry N [4]: 0.885
{5,6‑carboxyfluorescein}-DFDDDI[Pip′]F (not fully specified) [F-Pip7 (fluorescein-labelled single mutant)]	–	–	EC50 [3]: 0.09 ± 0.01 µM
Ac-D[Phe(4-Cl)][NMeD]DELP[Phe(3-Cl)] (SSB-Ct of E. coli SSB (residues 171-178) with combined modifications, printed in three-letter code; F2 stands for 4Cl-Phe, D3 for NM-Asp, F8 for 3Cl-Phe; numbers count on: the octapeptide (position 1 = SSB residue 171); source: synthetic peptide) [R1-sSSB-Ct (Asp–4Cl-Phe–NM-Asp–Asp–Glu–Leu–Pro–3Cl-Phe)]	–	–	Kd [5]: 0.13 µM; dH [5]: -6.79 kcal/mol; stoichiometry N [5]: 0.935
{5,6‑carboxyfluorescein}-GGDFDDDLPF (two glycines between the 5,6-carboxyfluorescein and the peptide; E. coli SSB-Ct, residues 171-178; numbers count on: the octapeptide (position 1 = SSB residue 171); One of Compounds 54-62 of the Supplementary Material; also called F-mSSB Leu6; source: synthetic peptide) [F-Leu6 (fluorescein-labelled single mutant)]	–	–	EC50 [3]: 0.2 ± 0.03 µM
{5,6‑carboxyfluorescein}-GGD[Phe(4-CF3)]DDDIPF (two glycines between the 5,6-carboxyfluorescein and the peptide; E. coli SSB-Ct, residues 171-178; F at position 2 stands for 4-CF3-Phe; numbers count on: the octapeptide (position 1 = SSB residue 171); One of Compounds 54-62 of the Supplementary Material; also called F-mSSB 4CF3-Phe2; source: synthetic peptide) [F-4CF3-Phe2 (fluorescein-labelled single mutant)]	–	–	EC50 [3]: 0.04 ± 0.002 µM
{5,6‑carboxyfluorescein}-GGD[Phe(4-Cl)]DDDIPF (two glycines between the 5,6-carboxyfluorescein and the peptide; E. coli SSB-Ct, residues 171-178; F at position 2 stands for 4-Cl-Phe; numbers count on: the octapeptide (position 1 = SSB residue 171); One of Compounds 54-62 of the Supplementary Material; also called F-mSSB 4Cl-Phe2; source: synthetic peptide) [F-4Cl-Phe2 (fluorescein-labelled single mutant)]	–	–	EC50 [3]: 0.15 ± 0.02 µM
